Assay results: ChEMBL document CHEMBL1146280, “New competitive inhibitors of cytosolic (NADH-dependent) rabbit muscle glycerophosphate dehydrogenase” (Bioorg Med Chem Lett, 2007)

Key:
[1] = Inhibition of class I FBA; set-up: species or system Homo sapiens
Oryctolagus cuniculus = species: Oryctolagus cuniculus; assay: Inhibition of rabbit muscle NADH-dependent cytosolic glycerophosphate dehydrogenase
[2] = Inhibition of class II FBA

Row | SMILES | Ki [1] [µM] | Ki (Oryctolagus cuniculus) [µM] | Ki [2] [µM]
1 | N/C(COP(=O)(O)O)=N/O | > 1000 | 100 | 2.3
2 | O=C(CC(O)P(=O)(O)O)NO (stereo not drawn) | 180 | 40 | 418
3 | NNC(=O)COP(=O)(O)O [PHOSPHORIC ACID MONOHYDRAZINOCARBONYLMETHYL ESTER] | 370 | > 500 | 0.34
4 | O=C(COP(=O)(O)O)NO [PHOSPHOGLYCOLOHYDROXAMATE] | 1 | 10 | 0.01
5 | O=C(CCP(=O)(O)O)NO | > 500 | 6 | 145
6 | NC(CC(=O)NO)P(=O)(O)O (stereo not drawn) | 9000 | > 500 | 3000
